One data set deals with mTORC1 signaling. As to the kind of experiment: MEF TSC1−/− cell-based assay for rapalog potency (pS6). More on the design: species or system Mouse. The following applies: MEF TSC1−/− cells, average from multiple assays. The procedure:
Cell-based assay for rapalog potency determination. Rapalog potency was determined using MEF TSC1−/− cell based assay. MEF TSC1−/− cells are Mouse Embryonic Fibroblasts deficient in Tuberous sclerosis protein—TSC1, which negatively regulates mTORC1 signaling and thus display constitutive mTORC1 activation, resulting in phosphorylation (activation) of downstream molecules. This cell-based assay is used to measure inhibition (de-phosphorylation) of S6 and 4EBP1 by rapalogs or other mTOR inhibitors.
MEF TSC1−/− cells were plated on Poly-D-lysine coated 384 well Griener clear bottom plates and incubated overnight at 37° C., 5% CO2. […] Nuclei were visualized with Hoechst (ThermoFisher Scientific #H3570) staining. Cells were imaged (InCell 600) using respective fluorescence channels and the potency of mTOR inhibitors was defined by pS6 IC50 (nM).
In vitro potency of mTOR inhibitors was defined by pS6 IC50 (nM) in MEF TSC1−/− cells.

Another data set has as its target FKBP51 (Homo sapiens (Human), UniProt Q13451). Description: SPR assay, binding affinity to FKBP51. The following applies: single-cycle kinetics. The procedure:
(§1) SPR Assay to Determine Binding Affinity to FK506-Binding Proteins (FKBP). N-terminal avi-his6 tagged FKBP fusions to FKBP12, FKBP51 and FKBP52 were expressed in E. coli and purified using standard chromatography. Each protein was subsequently immobilized on a streptavidin chip in a Biacore 8K SPR instrument (GE Healthcare). Using single-cycle kinetics, compound titrations were flowed at 45 uL/min over each surface using 2-minute association and 30-minute dissociation phases in a buffer containing 50 mM Tris pH 7.5/150 mM NaCl/0.01% Tween 20/1 mM DTT/2% DMSO. The data was fit using low molecular weight (LMW) single-cycle kinetics. The equilibrium dissociation constants (KD) are reported.

The target of the next data set is FKBP12 (Homo sapiens (Human), UniProt P62942). As to the kind of experiment: SPR assay, binding affinity to FKBP12. The following applies: single-cycle kinetics. The procedure:
as §1

For a further data set, the target named is FKBP52 (Homo sapiens (Human), UniProt Q02790). As to the kind of experiment: SPR assay, binding affinity to FKBP52. Particulars: single-cycle kinetics. The procedure:
as §1

The nature of a further data set: in vivo. The following applies: male, Sprague Dawley, rat, whole blood.
Data set [1] deals with S6K1 (Thr389) in FKBP12 knock-down 293T cells. Description: S6K1 (Thr389) phosphorylation ELISA in FKBP12 knock-down 293T cells. The format is cell-based. Particulars: 2 hours treatment.
Description: Generating FKPB12 knock-down cells. […] Selection was performed with puromycin for 48 hours and cells were plated for colony formation. FKBP12 knock-down clones were screened by immunoblotting with an anti-FKBP12 antibody (Thermo Scientific, Pierce #PA1-026A).
WT, FKBP12 knock-down and FKBP12 knock-out 293T cells were plated at a density of 30,000 cells per well in poly-D-Lysine coated 96-well plates (Corning, #354461) in Dulbecco's modified Eagle's medium (ThermoFisher, #11995-065) supplemented with 10% fetal bovine serum (ThermoFisher, #16140-071). Cells were incubated at 37° C., 5% CO2 for 48 hours until they reached 80% confluence. […] Media supplemented with blank Dimethyl sulfoxide (DMSO) was used as a control for both compounds. Phosphorylated amounts of S6K1 (Thr389) were detected by a sandwich ELISA kit (Cell signaling, #7063C) following the manufacture's protocol.

Chain of FKBP52 (Q02790 whole entry): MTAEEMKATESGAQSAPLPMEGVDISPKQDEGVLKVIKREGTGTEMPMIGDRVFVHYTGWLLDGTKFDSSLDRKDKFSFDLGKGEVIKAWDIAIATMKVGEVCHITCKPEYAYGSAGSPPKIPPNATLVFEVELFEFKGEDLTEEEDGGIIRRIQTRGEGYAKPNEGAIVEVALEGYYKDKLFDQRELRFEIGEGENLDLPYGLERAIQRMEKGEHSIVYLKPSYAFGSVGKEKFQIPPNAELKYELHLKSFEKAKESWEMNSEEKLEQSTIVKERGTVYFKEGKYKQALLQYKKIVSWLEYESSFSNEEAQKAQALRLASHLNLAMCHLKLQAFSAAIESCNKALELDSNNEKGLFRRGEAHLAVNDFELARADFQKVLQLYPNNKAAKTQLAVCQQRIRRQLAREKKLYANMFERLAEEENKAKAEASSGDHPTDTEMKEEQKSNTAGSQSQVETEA
Chain of FKBP12 (P62942 whole entry): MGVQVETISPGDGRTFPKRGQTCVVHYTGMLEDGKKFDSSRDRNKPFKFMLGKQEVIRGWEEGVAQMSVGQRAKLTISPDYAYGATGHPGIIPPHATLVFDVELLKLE
Chain of FKBP51 (Q13451 whole entry, the tested form may be a part): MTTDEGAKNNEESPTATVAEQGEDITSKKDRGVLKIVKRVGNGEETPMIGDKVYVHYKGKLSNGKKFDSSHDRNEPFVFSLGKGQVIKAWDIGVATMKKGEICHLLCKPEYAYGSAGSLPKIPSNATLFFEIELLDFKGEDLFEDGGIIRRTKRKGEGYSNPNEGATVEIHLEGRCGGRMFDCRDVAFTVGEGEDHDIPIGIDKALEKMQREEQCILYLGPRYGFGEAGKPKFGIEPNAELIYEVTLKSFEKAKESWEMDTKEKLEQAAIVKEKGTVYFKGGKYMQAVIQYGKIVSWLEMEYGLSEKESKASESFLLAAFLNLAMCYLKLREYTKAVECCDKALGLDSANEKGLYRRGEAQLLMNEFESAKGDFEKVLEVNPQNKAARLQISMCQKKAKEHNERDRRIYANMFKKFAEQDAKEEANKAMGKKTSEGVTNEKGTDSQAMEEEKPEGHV

Regarding `CCOCCO[C@@H]1CC[C@@H](C[C@@H](C)[C@@H]2CC[C@H](C)/C=C(\C)[C@@H](O)[C@@H](OC)C(=O)[C@H](C)C[C@H](C)/C=C/C=C/C=C(\C)C(N3CCCS3(=O)=O)C[C@@H]3CC[C@@H](C)[C@@](O)(O3)C(=O)C(=O)N3CCCC[C@H]3C(=O)O2)C[C@H]1OC` (single isomer, unassigned) [Example 18, C16-(1,1-dioxidoisothiazolidin-2-yl)-C32-deoxo-C40-(2-ethoxyethoxy)-rapamycin], in the data set on mTORC1 signaling (Mus musculus), half-maximal inhibition (IC50) required 1.55 nM. In turn, `CO[C@@H]1C[C@H](C[C@@H](C)[C@@H]2CC[C@H](C)/C=C(\C)[C@@H](O)[C@@H](OC)C(=O)[C@H](C)C[C@H](C)/C=C/C=C/C=C(\C)C(N3CCCS3(=O)=O)C[C@@H]3CC[C@@H](C)[C@@](O)(O3)C(=O)C(=O)N3CCCC[C@H]3C(=O)O2)CC[C@H]1OP(C)(C)=O` (single isomer, unassigned) [Example 15, C16-(1,1-dioxidoisothiazolidin-2-yl)-C32-deoxo-C40-dimethylphosphinyl-rapamycin] displayed an IC50 in the data set with mTORC1 signaling of 3.2 nM.

As for `CO[C@@H]1C[C@H](C[C@@H](C)[C@@H]2CC[C@H](C)/C=C(\C)[C@@H](O)[C@@H](OC)C(=O)[C@H](C)C[C@H](C)/C=C/C=C/C=C(\C)C(N3CCN(C)C3=O)C[C@@H]3CC[C@@H](C)[C@@](O)(O3)C(=O)C(=O)N3CCCC[C@H]3C(=O)O2)CC[C@H]1O` (single isomer, unassigned) [Example 4, C16-(3-methylimidazolidin-2-one-1-yl)-C32-deoxo-rapamycin], the half-maximal inhibitory concentration (IC50) with mTORC1 signaling (Mus musculus) is more than 500 nM. Compound `CO[C@@H]1C[C@H](C[C@@H](C)[C@@H]2CC[C@H](C)/C=C(\C)[C@@H](O)[C@@H](OC)C(=O)[C@H](C)C[C@H](C)/C=C/C=C/C=C(\C)C(N3CCN(CCO)C3=O)C[C@@H]3CC[C@@H](C)[C@@](O)(O3)C(=O)C(=O)N3CCCC[C@H]3C(=O)O2)CC[C@H]1O` (single isomer, unassigned) [Example 5] registered a concentration for half-maximal inhibition (IC50) in the data set on mTORC1 signaling (Mus musculus) of 153 nM. On to `CO[C@@H]1C[C@H](C[C@@H](C)[C@@H]2CC[C@H](C)/C=C(\C)[C@@H](O)[C@@H](OC)C(=O)[C@H](C)C[C@H](C)/C=C/C=C/C=C(\C)C(N3CCS3(=O)=O)C[C@@H]3CC[C@@H](C)[C@@](O)(O3)C(=O)C(=O)N3CCCC[C@H]3C(=O)O2)CC[C@H]1OP(C)(C)=O` (single isomer, unassigned) [Example 11, C16-(1,1-dioxido-1,2-thiazetidin-2-yl)-C32-deoxo-C40-dimethylphosphinyl-rapamycin], for which inhibition with mTORC1 signaling (Mus musculus) was half-maximal at 3.33 nM (IC50).

For the compound `CO[C@@H]1C[C@H](C[C@@H](C)[C@@H]2CC[C@H](C)/C=C(\C)[C@@H](O)[C@@H](OC)C(=O)[C@H](C)C[C@H](C)/C=C/C=C/C=C(\C)[C@H](N3CCCS3(=O)=O)C[C@@H]3CC[C@@H](C)[C@@](O)(O3)C(=O)C(=O)N3CCCC[C@H]3C(=O)O2)CC[C@H]1OCCO` [Example 16, (R)—C16-(1,1-dioxidoisothiazolidin-2-yl)-C32-deoxo-C40-(2-hydroxyethoxy)-rapamycin], inhibition in the data set on mTORC1 signaling (Mus musculus) was half-maximal at 0.645 nM (IC50). Besides, the affinity on FKBP51, expressed as Kd, was 4060 nM. Turning to `CO[C@@H]1C[C@H](C[C@@H](C)[C@@H]2CC[C@H](C)/C=C(\C)[C@@H](O)[C@@H](OC)C(=O)[C@H](C)C[C@H](C)/C=C/C=C/C=C(\C)C(N3CCS3(=O)=O)C[C@@H]3CC[C@@H](C)[C@@](O)(O3)C(=O)C(=O)N3CCCC[C@H]3C(=O)O2)CC[C@H]1O` (single isomer, unassigned) [Example 6, C16-(1,1-dioxido-1,2-thiazetidin-2-yl)-C32-deoxo-rapamycin], the equilibrium dissociation constant (Kd) stood at 0.32 nM on FKBP12, 53 nM at FKBP52 and 39 nM at FKBP51. The IC50 with mTORC1 signaling (Mus musculus) was determined as 0.17 nM. In the data set with mTORC1 signaling (Mus musculus), `CO[C@@H]1C[C@H](C[C@@H](C)[C@@H]2CC[C@H](C)/C=C(\C)[C@@H](O)[C@@H](OC)C(=O)[C@H](C)C[C@H](C)/C=C/C=C/C=C(\C)C(N3CCS3(=O)=O)C[C@@H]3CC[C@@H](C)[C@@](O)(O3)C(=O)C(=O)N3CCCC[C@H]3C(=O)O2)CC[C@H]1OP(C)(C)=O` (single isomer, unassigned) [Example 10, C16-(1,1-dioxido-1,2-thiazetidin-2-yl)-C32-deoxo-C40-dimethylphosphinyl-rapamycin] came in with a concentration for half-maximal inhibition (IC50) of 0.557 nM. The Kd at FKBP51 amounted to 95 nM. Regarding `CO[C@H]1C[C@@H]2CC[C@@H](C)[C@@](O)(O2)C(=O)C(=O)N2CCCC[C@H]2C(=O)O[C@H]([C@H](C)C[C@@H]2CC[C@@H](OCCO)[C@H](OC)C2)CC[C@H](C)/C=C(\C)[C@@H](O)[C@@H](OC)C(=O)[C@H](C)C[C@H](C)/C=C/C=C/C=C/1C` [Intermediate 3], half-maximal inhibition in the data set on mTORC1 signaling (Mus musculus) (IC50) required 0.0591 nM. On to `CO[C@@H]1C[C@H](C[C@@H](C)[C@@H]2CC[C@H](C)/C=C(\C)[C@@H](O)[C@@H](OC)C(=O)[C@H](C)C[C@H](C)/C=C/C=C/C=C(\C)C(N3CCS3(=O)=O)C[C@@H]3CC[C@@H](C)[C@@](O)(O3)C(=O)C(=O)N3CCCC[C@H]3C(=O)O2)CC[C@H]1O` (single isomer, unassigned) [Example 7, C16-(1,1-dioxido-1,2-thiazetidin-2-yl)-C32-deoxo-rapamycin], for which the Kd on FKBP12 amounted to 1.2 nM; on FKBP52, 236 nM; at FKBP51, 287 nM.

`CO[C@H]1C[C@@H]2CC[C@@H](C)[C@@](O)(O2)C(=O)C(=O)N2CCCC[C@H]2C(=O)O[C@H]([C@H](C)C[C@@H]2CC[C@@H](OP(C)(C)=O)[C@H](OC)C2)CC[C@H](C)/C=C(\C)[C@@H](O)[C@@H](OC)C(=O)[C@H](C)C[C@H](C)/C=C/C=C/C=C/1C` [Intermediate 4]: inhibition in the data set on mTORC1 signaling (Mus musculus) was half-maximal at 0.066 nM (IC50).

With `CO[C@H]1C[C@@H]2CC[C@@H](C)[C@@](O)(O2)C(=O)C(=O)N2CCCC[C@H]2C(=O)O[C@H]([C@H](C)C[C@@H]2CC[C@@H](O)[C@H](OC)C2)CC[C@H](C)/C=C(\C)[C@@H](O)[C@@H](OC)C(=O)[C@H](C)C[C@H](C)/C=C/C=C/C=C/1C` [Intermediate 1, C32-deoxo-rapamycin, reference compound], in the data set with mTORC1 signaling (Mus musculus), the IC50 was 0.092 nM.

`CO[C@H]1C[C@@H]2CC[C@@H](C)[C@@](O)(O2)C(=O)C(=O)N2CCCC[C@H]2C(=O)O[C@H]([C@H](C)C[C@@H]2CC[C@H](n3cnnn3)[C@H](OC)C2)CC[C@H](C)/C=C(\C)[C@@H](O)[C@@H](OC)C(=O)[C@H](C)C[C@H](C)/C=C/C=C/C=C/1C` [Intermediate 5] came in with an IC50 with mTORC1 signaling (Mus musculus) of 0.106 nM. `CO[C@@H]1C[C@H](C[C@@H](C)[C@@H]2CC[C@H](C)/C=C(\C)[C@@H](O)[C@@H](OC)C(=O)[C@H](C)C[C@H](C)/C=C/C=C/C=C(\C)C(N3CCC3=O)C[C@@H]3CC[C@@H](C)[C@@](O)(O3)C(=O)C(=O)N3CCCC[C@H]3C(=O)O2)CC[C@H]1O` (single isomer, unassigned) [Example 3] had a 50% inhibitory concentration (IC50) with mTORC1 signaling (Mus musculus) of 1.45 nM. In the data set “in vivo” (iv, 1 mg/kg), `CO[C@H]1C[C@@H]2CC[C@@H](C)[C@@](O)(O2)C(=O)C(=O)N2CCCC[C@H]2C(=O)O[C@H]([C@H](C)C[C@@H]2CC[C@@H](OCCO)[C@H](OC)C2)CC(=O)[C@H](C)/C=C(\C)[C@@H](O)[C@@H](OC)C(=O)[C@H](C)C[C@H](C)/C=C/C=C/C=C/1C` [RAD001, everolimus, reference compound] registered a clearance of 32 mL/min/kg. In addition, the bioavailability in the data set “in vivo” (oral, 3 mg/kg) is 19%. Moreover, the “maximum inhibition of S6K1(Thr389)” value in data set [1] was 70%. The half-maximal inhibitory concentration (IC50) in the data set on mTORC1 signaling (Mus musculus) was 0.05 nM. At FKBP51, this compound yielded a Kd of 811 nM. For the compound `CO[C@@H]1C[C@H](C[C@@H](C)[C@@H]2CC[C@H](C)/C=C(\C)[C@@H](O)[C@@H](OC)C(=O)[C@H](C)C[C@H](C)/C=C/C=C/C=C(\C)[C@@H](N3CCCS3(=O)=O)C[C@@H]3CC[C@@H](C)[C@@](O)(O3)C(=O)C(=O)N3CCCC[C@H]3C(=O)O2)CC[C@H]1O` [Example 1, (S)—C16-(1,1-dioxidoisothiazolidin-2-yl)-C32-deoxo-rapamycin], the Kd at FKBP12 is 0.35 nM; at FKBP52, 174 nM; at FKBP51, 153 nM. This compound yielded an IC50 in the data set with mTORC1 signaling (Mus musculus) of 2.4 nM.

The compound `CO[C@@H]1C[C@H](C[C@@H](C)[C@@H]2CC[C@H](C)/C=C(\C)[C@@H](O)[C@@H](OC)C(=O)[C@H](C)C[C@H](C)/C=C/C=C/C=C(\C)C(N3CCS3(=O)=O)C[C@@H]3CC[C@@H](C)[C@@](O)(O3)C(=O)C(=O)N3CCCC[C@H]3C(=O)O2)CC[C@@H]1n1cnnn1` (single isomer, unassigned) [Example 12] yielded an IC50 with mTORC1 signaling (Mus musculus) of 0.374 nM.

In the data set on mTORC1 signaling (Mus musculus), `CO[C@@H]1C[C@H](C[C@@H](C)[C@@H]2CC[C@H](C)/C=C(\C)[C@@H](O)[C@@H](OC)C(=O)[C@H](C)C[C@H](C)/C=C/C=C/C=C(\C)C(N3CCCS3(=O)=O)C[C@@H]3CC[C@@H](C)[C@@](O)(O3)C(=O)C(=O)N3CCCC[C@H]3C(=O)O2)CC[C@@H]1n1cnnn1` (single isomer, unassigned) [Example 17] showed an IC50 of 1.1 nM.
